Laboratory results: patent publication US9926588B2, “Method for testing and screening P38 MAP kinase modifiers” (THE TRUSTEES OF THE UNIVERSITY OF PENNSYLVANIA, priority 2007, dated 2018)

Key:
p38 MAPK = assay: Effect of p38 MAPK activators and inhibitors on SMN complex components relocalization under protein synthesis inhibition; format: cell-based; details: for SMN accumulation in the nucleus in the presence of a protein synthesis inhibitor: with a protein synthesis inhibitor such as cycloheximide
Experimental: (§1) HeLa PV were cultured in Dulbecco's modified Eagle's medium (Invitrogen) supplemented with 10% fetal bovine serum (Invitrogen). For screening, cells were seeded onto 384-well plates or, for specific experiments, on glass coverslips the day before treatment. Compounds were added directly into the culture medium to the indicated concentration and the cells were then maintained at 37° C. in a 5% CO2 humidified atmosphere for the duration of the treatment. Dispensing of compounds and other automatic liquid handling steps were performed with a Beckman FX multi-channel system equipped with Hudson Crane robotic systems.
(§2) Indirect immunofluorescence on HeLa PV cells was performed as follows: HeLa cells, plated on glass coverslips, were briefly washed with PBS, fixed in 2% formaldehyde/PBS for 20 minutes at room temperature, permeabilized in 0.5% Triton X-100/PBS for 5 min at room temperature. Cells were blocked in 3% bovine serum albumin for 1 hour at room temperature. Double-label immunofluorescence experiments were performed by separate sequential incubations of each primary antibody, diluted in PBS containing 3% bovine serum albumin, followed by the specific secondary coupled to fluorescein isothiocyanate or TXRD. All incubations were at room temperature for 1 hour. Indirect epifluorescence microscopy was performed with a Nikon Eclipse E800 microscope. Digital images were collected with a Cook Sensicam high performance camera and processed with the IP laboratory software. Processing of samples for immunofluorescence microscopy on cells cultured in 384-well plates was automated and performed with the aid of microplate washers (ELX405, Bio-Tek) in a similar manner to that previously used for individual samples on glass slides. The cells were also stained with DAPI to allow definition of the nucleus in each cell. Digital images were acquired with an automated microscopy and analysis system (IN Cell Analyzer 1000, GE Healthcare). Images were analyzed using automated algorithms with parameters set to calculate mean pixel intensity in each nucleus (defined by DAPI staining and acquired in a separate channel), cytoplasm, and total cell, as well as the relevant calculated ratios of these values.
Next, the effect of p38 MAPK activators and inhibitors on SMN complex components relocalization under conditions of protein synthesis inhibition was monitored.

[1] = system: SMN sub-cellular localization in HeLa PV cells; assay: SMN sub-cellular localization by indirect immunofluorescence (anti-SMN 2B1); format: cell-based; details: for redistribution of SMN from the cytoplasm to the nucleus (accumulation of SMN in the nucleus): short treatment (2-6 hours); for concentration dependence of the effect on nuclear localization of SMN: HeLa cells (CHX FIG. 3b; VPA 2-10 mM FIG. 5b); for immunostaining of SMN showing nuclear accumulation (FIG. 8): emetine, puromycin, thapsigargin 10 μM, tunicamycin 10 μg/ml; for nuclear translocation of SMN at longer times: >24 hr (FIG. 5a)
Experimental: as §1
(§3) The following mouse monoclonal antibodies were used for indirect immunofluorescence: 2B1 (anti-SMN), 2E17 (anti-Gemin2), 12H12 (anti-Gemin3), 10G11 (anti-Gemin5), 6E2 (anti-Gemin7), 10E10 (anti-PABP), 6BG10 (anti-FXR1), Y12 (anti-Sm) and 9H10 (anti-hnRNP A1). An affinity-purified rabbit polyclonal antibody was used to detect Gemin6.
as §2
Based on the results obtained in Example 1, a library of ˜5,000 biologically active small molecules was screened on HeLa cells in 384-well plates. Each well was incubated with a different compound (at 10 μM) and the cells were processed for indirect immunofluorescence. Digital images were collected from six fields in each well and analyzed using imaging algorithms for multiple parameters including relative nuclear and cytoplasmic intensities, and number, size and signal intensity of Gems. DAPI-stained images were collected in a separate channel to define the boundary of each nucleus. Images of individual fields in wells were flagged by the software as showing a significant change in SMN sub-cellular localization. These individual wells were examined directly, and active compounds were re-tested for verification (FIG. 2).

[2] = system: Gemins 2, 3, 5, 6 and 7 localization in HeLa cells; assay: Immunostaining of Gemins (SMN complex components) in treated cells; format: cell-based
Experimental: as §3
Indirect immunofluorescence on HeLa PV cells was performed as follows: HeLa cells, plated on glass coverslips, were briefly washed with PBS, fixed in 2% formaldehyde/PBS for 20 minutes at room temperature, permeabilized in 0.5% Triton X-100/PBS for 5 min at room temperature. Cells were blocked in 3% bovine serum albumin for 1 hour at room temperature. Double-label immunofluorescence experiments were performed by separate sequential incubations of each primary antibody, diluted in PBS containing 3% bovine serum albumin, followed by the specific secondary coupled to fluorescein isothiocyanate or TXRD. All incubations were at room temperature for 1 hour. Indirect epifluorescence microscopy was performed with a Nikon Eclipse E800 microscope. […] Images were analyzed using automated algorithms with parameters set to calculate mean pixel intensity in each nucleus (defined by DAPI staining and acquired in a separate channel), cytoplasm, and total cell, as well as the relevant calculated ratios of these values. […]

[3] = system: hnRNP A1, PABP, FXR1 and snRNPs localization in HeLa cells; assay: Localization of other nuclear and cytoplasmic proteins (specificity); format: cell-based; details: 6 hrs of 10 μM CHX (FIG. 3c)
Experimental: as §3
Indirect immunofluorescence on HeLa PV cells was performed as follows: HeLa cells, plated on glass coverslips, were briefly washed with PBS, fixed in 2% formaldehyde/PBS for 20 minutes at room temperature, permeabilized in 0.5% Triton X-100/PBS for 5 min at room temperature. Cells were blocked in 3% bovine serum albumin for 1 hour at room temperature. Double-label immunofluorescence experiments were performed by separate sequential incubations of each primary antibody, diluted in PBS containing 3% bovine serum albumin, followed by the specific secondary coupled to fluorescein isothiocyanate or TXRD. All incubations were at room temperature for 1 hour. Indirect epifluorescence microscopy was performed with a Nikon Eclipse E800 microscope. […] Images were analyzed using automated algorithms with parameters set to calculate mean pixel intensity in each nucleus (defined by DAPI staining and acquired in a separate channel), cytoplasm, and total cell, as well as the relevant calculated ratios of these values.

HeLa cells = assay: Cell viability / toxicity of treated cells; details: overnight treatment with 10 μM CHX

COc1ccc(C[C@H]2NC[C@H](O)[C@H]2OC(C)=O)cc1 [Anisomycin]
localization of SMN complex components, Anisomycin alone (p38 MAPK; treated cell (FIG. 6: 1 μg/ml Anisomycin)): accumulate in the cytoplasm
SMN accumulation in the nucleus in the presence of a protein synthesis inhibitor (p38 MAPK): inhibit SMN accumulation in the nucleus

Oc1ccc(-c2nc(-c3ccncc3)c(-c3ccc(F)cc3)[nH]2)cc1 [SB202190]
localization of SMN complex components, p38 MAPK inhibitor combined with Anisomycin (p38 MAPK; 10 μM SB202190 + 1 μg/ml Anisomycin, HeLa cells, FIG. 6): accumulation of SMN complex components in the nucleus
localization of SMN complex components, p38 MAPK inhibitor combined with CHX (p38 MAPK; 10 μM SB202190 + 10 μM CHX, HeLa cells, FIG. 6): accumulation of SMN complex components in the nucleus

CCOC(=O)CN1C(=O)CC(C[C@@H](O)[C@@H]2C[C@@H](C)C[C@H](C)C2=O)CC1=O [cycloheximide-N-ethylethanoate]
redistribution of SMN from the cytoplasm to the nucleus (accumulation of SMN in the nucleus) ([1]; HeLa cells): did not show any effect

C[C@@H]1C[C@@H]([C@H](O)CC2CC(=O)NC(=O)C2)C(=O)[C@@H](C)C1 [cycloheximide]
treatment time after which little SMN was detected in the cytoplasm ([1]; HeLa cells): ≥ 8 h
treatment time after which the effect on SMN redistribution was evident ([1]; HeLa cells): 2 h
concentration dependence of the effect on nuclear localization of SMN [1]: concentration-dependent
concentrations exhibiting a clear effect on redistribution of SMN from the cytoplasm to the nucleus ([1]; HeLa cells, FIG. 3a,b): 0.1 to 40 µM
redistribution of SMN from the cytoplasm to the nucleus (accumulation of SMN in the nucleus) ([1]; HeLa cells): most striking accumulation of SMN in the nucleus
reversibility of SMN nuclear accumulation ([1]; cells washed and placed in fresh medium devoid of cycloheximide): reversible
relocation of SMN complex components (Gemins) to the nucleus ([2]; HeLa cells, 6 hours 10 μM CHX (FIG. 4), Gemin3 and Gemin5 excepted): causes most of the components of the SMN complex to accumulate in the nucleus
localization of other nuclear and cytoplasmic proteins (hnRNP A1, PABP, FXR1, snRNPs) [3]: not significantly affected
cell viability (HeLa cells): no reduction in cell viability

CC[C@H]1CN2CCc3cc(OC)c(OC)cc3[C@@H]2C[C@@H]1C[C@H]1NCCc2cc(OC)c(OC)cc21 [emetine]
redistribution of SMN from the cytoplasm to the nucleus (accumulation of SMN in the nucleus) ([1]; HeLa cells): showed the same effect as cycloheximide
immunostaining of SMN showing nuclear accumulation (FIG. 8) ([1]; HeLa cells): nuclear accumulation

COc1ccc(C[C@H](N)C(=O)N[C@H]2[C@@H](O)[C@H](n3cnc4c(N(C)C)ncnc43)O[C@@H]2CO)cc1 [puromycin]
redistribution of SMN from the cytoplasm to the nucleus (accumulation of SMN in the nucleus) ([1]; HeLa cells): showed the same effect as cycloheximide
immunostaining of SMN showing nuclear accumulation (FIG. 8) ([1]; HeLa cells): nuclear accumulation

O=C(CCCCCN1C(=O)c2cccc3cccc(c23)C1=O)NO [scriptaid]
nuclear translocation of SMN at longer times ([1]; HeLa cells): caused the same effect as protein synthesis inhibitors

C/C=C(/C)C(=O)O[C@H]1C(C)=C2[C@H]([C@@H]1OC(=O)CCCCCCC)[C@@](C)(OC(C)=O)C[C@H](OC(=O)CCC)[C@@]1(O)[C@H]2OC(=O)[C@@]1(C)O [thapsigargin]
redistribution of SMN from the cytoplasm to the nucleus (accumulation of SMN in the nucleus) ([1]; HeLa cells): caused SMN to accumulate in the nucleus
immunostaining of SMN showing nuclear accumulation (FIG. 8) ([1]; HeLa cells): nuclear accumulation

CC(/C=C/C(=O)NO)=C\[C@@H](C)C(=O)c1ccc(N(C)C)cc1 [trichostatin A]
nuclear translocation of SMN at longer times ([1]; HeLa cells): caused the same effect as protein synthesis inhibitors

CCCC(CCC)C(=O)O [valproic acid]
concentration dependence of the effect on nuclear localization of SMN [1]: clear concentration dependence effect
nuclear translocation of SMN at longer times ([1]; HeLa cells): caused the same effect as protein synthesis inhibitors
localization of Gemin3 and Gemin5 ([2]; 24 hour treatment with VPA (FIG. 5c)): remain predominantly cytoplasmic

TNFα
localization of SMN complex component, p38 MAPK activator combined with CHX (p38 MAPK; 150 ng/ml TNFα + 10 μM CHX, HeLa cells, FIG. 6): still remained in the cytoplasm
localization of SMN complex components, p38 MAPK activator alone (p38 MAPK; 150 ng/ml TNFα, HeLa cells, FIG. 6): accumulation of SMN complex components in the cytoplasm
SMN accumulation in the nucleus in the presence of a protein synthesis inhibitor (p38 MAPK): inhibit SMN accumulation in the nucleus

tunicamycin
redistribution of SMN from the cytoplasm to the nucleus (accumulation of SMN in the nucleus) ([1]; HeLa cells): caused SMN to accumulate in the nucleus
immunostaining of SMN showing nuclear accumulation (FIG. 8) ([1]; HeLa cells): nuclear accumulation
